The record followed here is PubChem BioAssay AID1963832 (Molecular Pharmacology Branch, DTP, NCI, 2024).

Values joined by “and” are separate entries in the source; they are usually repeats but may differ in a detail not shown here. Equal values may be shown once.

For this assay, the system named is 885724-159-R-J1-PDC complex spheroid viability. As to the kind of experiment: Anticancer human tumor 885724-159-R-J1-PDC patient-derived pancreatic adenocarcinoma cell line growth inhibition [POLQ]. Particulars: for viability, T/C: stronger effect = lower value. The protocol: Multicellular complex tumor spheroid response to Polymerase (POL) inhibitors (novobiocin, ART-558, RP6685) in combination with a variety of drugs and investigational agents in selected tumor cell lines
The POL inhibitors (novobiocin, ART-558, and RP6685) were evaluated both individually and in combination with standard of care and investigational anticancer small molecules within a complex spheroid model of solid tumors. . Complex spheroids include a stromal component modeled by human endothelial cells (HUVEC) and fibroblasts modeled by human mesenchymal stem cells (MSCs). The concentration ranges selected for each drug and investigational agent were based upon clinically achievable concentrations if the clinical Cmax of the agent was known.
Compounds. The drugs and investigational agents: novobiocin (NSC847541), ART-558 (NSC835418), RP-6685 (NSC848927), peposertib (NSC802822), ceralasertib (NSC780249), elimusertib (NSC800525), camonsertib (NSC841442), AZD-1390 (NSC803789), olaparib (NSC753686), talazoparib (NSC767125), rucaparib (NSC756644), sotorasib (NSC818433), MRTX-1133 (NSC836407), SN-38 (NSC673596), topotecan (NSC609699), epotoside (NSC141540), doxorubicin (NSC123127), gemcitabine (NSC613327), 5-fluorouracil (NSC19893), paclitaxel (NSC125973), vemurafenib (NSC761431), MSA-2 (NSC828583), SN-011 (NSC837082), adavosertib (NSC754352), prexasertib (NSC758257), carboplatin (NSC241240) and oxaliplatin (NSC266046), were obtained from the National Cancer Institute (NCI) Developmental Therapeutics Program Chemical Repository (21). The FDA-approved anticancer drug set is available from the Developmental Therapeutics Program at https://dtp.cancer.gov/organization/dscb/obtaining/. […] The stock solutions were prepared in dimethyl sulfoxide (DMSO, Sigma-Aldrich, St. Louis, MO, cat. D2650), except for the platinum compounds which were prepared in saline (Quality Biological, Gaithersburg, MD, cat. 114-055-101), at 800-fold the tested concentration and stored at -70 degrees C prior to their use. All drugs and investigational agents were tested over a range starting from a high concentration at or near the clinical Cmax and decreasing in half-log increments. If the clinical Cmax for an agent had not been determined, the highest concentration tested was 10 microM, except for SN-38, which was tested at a high concentration of 1 microM.
Cell Culture. All cells were maintained in an incubator at 37 degrees C and 5% CO2 with 95% humidity. The PDC lines were cultured according to standard operating procedures established by the NCI PDMR (https://pdmr.cancer.gov). Table 3 of the manuscript, lists the cell lines along with the number of the three cell types plated to form the mct-spheroids and media for tumor cell growth. After thawing, all PDC lines, except 997537-175-T-J1-PDC and 415267-285-R-J2-PDC, were cultured in Matrigel-coated flasks prepared with a working solution of 1X Ham's F-12 nutrient mix, without supplementation (Thermo Fisher Scientific, cat. 11765054), 100 U/mL penicillin-streptomycin (Thermo Fisher Scientific, cat. 15140122), and 2.5% Matrigel (Corning Inc., Corning, NY, cat. 354248) for the first three passages. The two PDC lines 997537-175-T-J1-PDC and 415267-285-R-J2-PDC were cultured on uncoated flasks. The 857933-349-R-J2-PDC line was cultured in 6C/Colon 1B media containing advanced DMEM/F-12 (Thermo Fisher Scientific, cat. 12634028), 10 mM HEPES (Thermo Fisher Scientific, cat. 15630080), 1X GlutaMAX supplement (Thermo Fisher Scientific, cat. 35050061), 0.1 mg/mL primocin (InvivoGen, San Diego, CA, cat. ant-pm-2), 10% defined fetal bovine serum, heat inactivated (HyClone Laboratories Inc., Logan, UT, cat. SH30070.03HI), 50% L-WRN conditioned media (ATCC, cat. CRL-3276), 1.25 mM N-Acetyl-L-cysteine (Sigma-Aldrich, cat. A9165), 10 mM nicotinamide (Sigma-Aldrich, cat. N0636), 1X B-27 supplement (Thermo Fisher Scientific, cat. 17504044), 1X N-2 supplement (Thermo Fisher Scientific, cat. […]
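Also: spheroids exposed to compounds for 7 days.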

For the compound `C=CCn1c(=O)c2cnc(Nc3ccc(N4CCN(C)CC4)cc3)nc2n1-c1cccc(C(C)(C)O)n1`, the viability, T/C is 96.5% and 99.3% and 105% (compound 0.00316 µM); 95.4% and 94.4% and 90.4% (compound 0.01 µM); 93.3% and 87.4% and 93.7% (compound 0.0316 µM); 85.1% and 77.1% and 79.6% (compound 0.1 µM); 55.8% and 56.4% and 55.1% (compound 0.316 µM); 44.7% and 48.3% and 49.7% (compound 1 µM). Also, the IC50 (curve of compound) is 577 nM and 767 nM and 846 nM.

For `CC(=O)O[C@H]1C(=O)[C@@]2(C)[C@H]([C@H](OC(=O)c3ccccc3)[C@]3(O)C[C@H](OC(=O)[C@H](O)[C@@H](NC(=O)c4ccccc4)c4ccccc4)C(C)=C1C3(C)C)[C@]1(OC(C)=O)CO[C@@H]1C[C@@H]2O`, the viability, T/C was 65.2% and 64.9% and 66% (compound 0.00949 µM); 56.1% and 54% and 50.9% (compound 0.03 µM); 56.4% and 63.5% and 54.9% (compound 0.0949 µM); 63.1% and 64.1% and 57.5% (compound 0.3 µM); 67.5% and 71.9% and 63.7% (compound 0.949 µM); 68.5% and 70.2% and 60.7% (compound 3 µM). The IC50 (curve of compound) was above 3000 nM.

As for `CC1COCCN1c1cc(-c2ccnn2C)c2ccnc(-c3ccn[nH]3)c2n1` (stereo not drawn), the viability, T/C reads like this: (compound 0.0316 µM) 73.3% and 80% and 94.5%; (compound 0.1 µM) 57.2% and 56.3% and 59.7%; (compound 0.316 µM) 49.6% and 42.2% and 46.3%; (compound 1 µM) 44.4% and 39.4% and 45.7%; (compound 3.16 µM) 43.7% and 39.8% and 43.8%; (compound 10 µM) 38.9% and 38.2% and 38.7%. The IC50 (curve of compound) is 283 nM and 167 nM and 246 nM.

On to `CC1COCCN1c1cc(C2(S(C)(=N)=O)CC2)nc(-c2ccnc3[nH]ccc23)n1` (stereo not drawn), for which the viability, T/C runs as follows: (compound 0.0316 µM) 96.4% and 90.3% and 97.2%; (compound 0.1 µM) 100% and 94.7% and 97.1%; (compound 0.316 µM) 93.7% and 85.1% and 88.2%; (compound 1 µM) 73.4% and 67.6% and 74.4%; (compound 3.16 µM) 55% and 54.6% and 54.8%; (compound 10 µM) 45.8% and 44.7% and 42.3%. In addition, the IC50 (curve of compound) was 5730 nM and 4930 nM.

Consider `CCCS(=O)(=O)Nc1ccc(F)c(C(=O)c2c[nH]c3ncc(-c4ccc(Cl)cc4)cc23)c1F`, for which the viability, T/C was 93.7% and 104% and 95.6% (compound 0.0316 µM); 117% and 108% and 115% (compound 0.1 µM); 124% (2×) and 122% (compound 0.316 µM); 158% and 146% and 140% (compound 1 µM); 158% and 144% and 133% (compound 3.16 µM); 90.7% and 102% and 68.9% (compound 10 µM). In addition, the 50% inhibitory concentration (IC50) (curve of compound) is above 10000 nM.

Consider `CC[C@@]1(O)C(=O)OCc2c1cc1n(c2=O)Cc2cc3c(CN(C)C)c(O)ccc3nc2-1`, for which the viability, T/C (compound 0.000316 µM) is 97.3% and 109% and 93.8%; the viability, T/C (compound 0.001 µM) was 102% and 92% and 99%; the viability, T/C (compound 0.00316 µM) is 98.8% and 97.1% and 92.2%; the viability, T/C (compound 0.01 µM) was 89.7% and 86.8% and 86.5%; the viability, T/C (compound 0.0316 µM) was 80.4% and 78.2% and 74.8%; the viability, T/C (compound 0.1 µM) is 57.3% and 62.5% and 57.7%. Moreover, the IC50 (curve of compound) was above 100 nM.

As for `CCc1c2c(nc3ccc(O)cc13)-c1cc3c(c(=O)n1C2)COC(=O)[C@]3(O)CC`, the viability, T/C by setting is: (compound 0.00316 µM) 76.2% and 80.4% and 69%; (compound 0.01 µM) 56% and 61.6% and 54.3%; (compound 0.0316 µM) 53.4% and 55% and 47.8%; (compound 0.1 µM) 47.3% and 54.5% and 50.5%; (compound 0.316 µM) 32% and 33.2% and 35.3%; (compound 1 µM) 5.28% and 5.56% and 4.88%. Besides, the half-maximal inhibitory concentration (IC50) (curve of compound) is 55.4 nM and 88.2 nM and 65.5 nM.

Turning to `CNCc1ccc(-c2[nH]c3cc(F)cc4c3c2CCNC4=O)cc1`, the viability, T/C (compound 0.0316 µM) was 109% and 96.8% and 102%; the viability, T/C (compound 0.1 µM) is 102% and 92.6% and 112%; the viability, T/C (compound 0.316 µM) was 88.9% and 91.8% and 107%; the viability, T/C (compound 1 µM) is 87.8% and 98.4% and 99.9%; the viability, T/C (compound 3.16 µM) is 89.9% and 93.1% and 107%; the viability, T/C (compound 10 µM) is 93% and 91% and 83.8%. Moreover, the half-maximal inhibitory concentration (IC50) (curve of compound) is above 10000 nM.

With `COC1C(OC(N)=O)C(O)C(Oc2ccc3c(O)c(NC(=O)c4ccc(O)c(CC=C(C)C)c4)c(=O)oc3c2C)OC1(C)C` (stereo not drawn), the viability, T/C (compound 0.0316 µM) is 94.1% [middle of 13 runs]; the viability, T/C (compound 0.1 µM) is 95.9% [middle of 13 runs]; the viability, T/C (compound 0.316 µM) is 98.5% [middle of 13 runs]; the viability, T/C (compound 1 µM) is 98.8% [middle of 12 runs]; the viability, T/C (compound 3.16 µM) was 98.5% [middle of 13 runs]; the viability, T/C (compound 10 µM) is 106% [middle of 13 runs]. Further, the IC50 (compound alone, run of 11/27/2023) is above 10000 nM.

The term viability, T/C denotes the ratio of treated to control. As usually defined, the IC50 is the concentration that inhibits the measured activity by half.
